In the NIST ThermoML archive (doi:10.1021/je100042c):

Settings: 101.33 kPa, Liquid; for viscosity: Concentric cylinders viscometry; for mass density: Vibrating tube method

CCCCCCCCCC(=O)OC [methyl decanoate]
Settings	mass density [kg/m3]	viscosity [mPa·s]
278.15 K	884.7	2.989
283.15 K	880.6	2.654
288.15 K	876.4	2.373
293.15 K	872.3	2.136
298.15 K	868.2	1.933
303.15 K	864.1	1.76
308.15 K	860	1.609
313.15 K	856	1.477
318.15 K	851.9	1.361
323.15 K	847.8	1.259
328.15 K	843.6	1.167
333.15 K	839.5	1.086
338.15 K	835.3	1.013
343.15 K	831.2	0.9477
348.15 K	827	0.8886
353.15 K	822.9	0.8342
358.15 K	818.7	0.786
363.15 K	814.5	0.7421

CCCCCCCCCCCCCC(=O)OC [methyl tetradecanoate]
Settings	mass density [kg/m3]	viscosity [mPa·s]
298.15 K	863.7	3.982
303.15 K	859.9	3.543
308.15 K	856	3.165
313.15 K	852.2	2.845
318.15 K	848.4	2.571
323.15 K	844.6	2.334
328.15 K	840.8	2.129
333.15 K	837	1.95
338.15 K	833.1	1.793
343.15 K	829.3	1.655
348.15 K	825.5	1.532
353.15 K	821.8	1.423
